Test results taken from patent US20050014765A1, “Aryl-heteroaromatic products, compositions comprising them and use” (Aventis Pharma S.A., priority 2003, published 2005).

Columns and labels:
[1] = molecular target: T1, Tubulin purified from pig brains (Sus scrofa, UniProt P02550+P02554); experiment: Assessment of the inhibition of tubulin polymerization (turbidimetry at 350 nm); format: biochemical; settings: concentration which inhibits the rate of polymerization by 50%; tubulin 1 mg/ml, 37° C.; read-out: Inhibition of tubulin polymerization IC 50
T1 construct: Tubulin is purified from pig brains according to published methods; from tissue; host or cells: pig brain
T1 sequence (P02550 whole entry): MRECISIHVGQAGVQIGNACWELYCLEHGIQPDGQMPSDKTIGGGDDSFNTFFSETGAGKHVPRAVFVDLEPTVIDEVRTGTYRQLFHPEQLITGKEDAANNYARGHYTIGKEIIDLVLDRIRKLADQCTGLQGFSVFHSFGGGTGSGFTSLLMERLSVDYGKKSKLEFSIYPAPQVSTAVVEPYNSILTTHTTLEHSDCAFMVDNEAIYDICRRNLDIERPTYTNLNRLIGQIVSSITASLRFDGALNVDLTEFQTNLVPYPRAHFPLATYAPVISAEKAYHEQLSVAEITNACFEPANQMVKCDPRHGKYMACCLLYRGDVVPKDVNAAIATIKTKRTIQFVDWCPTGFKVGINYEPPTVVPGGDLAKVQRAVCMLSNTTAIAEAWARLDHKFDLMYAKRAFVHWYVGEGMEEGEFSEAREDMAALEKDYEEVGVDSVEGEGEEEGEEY
T1 sequence (P02554 whole entry): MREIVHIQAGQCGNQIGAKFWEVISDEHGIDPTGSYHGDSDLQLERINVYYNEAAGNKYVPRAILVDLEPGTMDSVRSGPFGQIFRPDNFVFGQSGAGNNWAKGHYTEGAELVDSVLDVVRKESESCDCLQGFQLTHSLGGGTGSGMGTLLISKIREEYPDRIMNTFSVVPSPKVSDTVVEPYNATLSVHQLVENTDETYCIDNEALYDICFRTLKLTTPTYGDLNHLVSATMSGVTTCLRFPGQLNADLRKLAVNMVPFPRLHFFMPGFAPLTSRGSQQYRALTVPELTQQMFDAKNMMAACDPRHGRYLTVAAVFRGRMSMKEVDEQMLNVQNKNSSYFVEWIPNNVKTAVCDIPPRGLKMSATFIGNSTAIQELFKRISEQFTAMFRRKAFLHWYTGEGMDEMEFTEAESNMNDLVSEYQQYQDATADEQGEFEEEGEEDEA
Procedure, shortened: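 Pig brain tubulin, >95% pure after polymerization/depolymerization cycles and phosphocellulose removal of MAPs, used at 10 μm in MES pH 6.8/30% glycerol buffer with 1 mM GTP and 6 mM MgCl2. Compounds at 0.5–10 μm were added before a 6→37 °C shift triggered assembly, followed by turbidity at 350 nm. IC50 is the concentration halving polymerization rate.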

HCT116 cells = experiment: Inhibition of proliferation of the HCT116 human colon tumor line ([14C]-thymidine incorporation); format: cell-based; settings: HCT-116, 48 hours incubation at 37° C., read-out: Inhibition of HCT116 proliferation IC 50
Procedure, shortened: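 HCT116 cells at 5000/well in DMEM with 10% fetal calf serum were treated with compounds up to 10 μM (DMSO ≤0.5%) plus [14C]-thymidine 0.1 μCi/well for 48 h at 37 °C. IC50 is the concentration halving incorporated radioactivity against untreated control.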

Structure (SMILES) | IC50 [1] | IC50 (HCT116 cells) | melting point
COc1cc(OC)cc(N2CCN(C(=O)c3[nH]cnc3-c3ccccc3)CC2)c1 [Example 9, [4-(3,5-Dimethoxyphenyl)piperazin-1-yl](4-phenyl-1H-imidazol-5-yl)-methanone] | 600 nM | 1.3 nM | 196 °C
O=C(c1nc(S)[nH]c1-c1ccccc1)N1CCN(c2cccc(Cl)c2)CC1 [Example 19, [4-(3-Chlorophenyl)piperazin-1-yl](2-mercapto-5-phenyl-1H-imidazol-4-yl)-methanone] | 750 nM | 28.7 nM | > 260 °C
COc1cc(OC)cc(N2CCN(C(=O)c3ccn(C)c3-c3ccccc3)CC2)c1 [Example 27, [4-(3,5-Dimethoxyphenyl)piperazin-1-yl](1-methyl-2-phenyl-1H-pyrrol-3-yl)-methanone] | 1900 nM | 15.1 nM | 130 °C
COc1cc(OC)cc(N2CCN(C(=O)c3[nH]c(O)nc3-c3ccccc3)CC2)c1 [Example 28, [4-(3,5-Dimethoxyphenyl)piperazin-1-yl](2-hydroxy-5-phenyl-1H-imidazol-4-yl)methanone] | 1100 nM | 1.5 nM | 130 °C
NC(=O)c1cccc(N2CCN(C(=O)c3nc(O)[nH]c3-c3ccccc3)CC2)c1 [Example 51, 3-[4-(2-Hydroxy-4-phenyl-1H-imidazol-5-yl-carbonyl)piperazin-1-yl]benzamide] | 500 nM | 1360 nM | 202 °C
N#Cc1cccc(N2CCN(C(=O)c3[nH]c(S)nc3-c3ccccc3)CC2)c1 [Example 52, 3-[4-(2-Mercapto-4-phenyl-1H-imidazol-5-yl-carbonyl)piperazin-1-yl]-benzonitrile] | 400 nM | 100 nM | 247 °C
COc1cc(OC)cc(N2CCN(C(=O)c3ccn(CCO)c3-c3ccccc3)CC2)c1 [Example 53, [4-(3,5-Dimethoxyphenyl)piperazin-1-yl][1-(2-hydroxyethyl)-2-phenyl-1H-pyrrol-3-yl]methanone] | 810 nM | 46 nM | 157 °C

The next lines start with the values.

IC50 [1] | IC50 (HCT116 cells) | melting point | Structure (SMILES)
795 nM | 17 nM | 173 °C | O=C(c1[nH]c(O)nc1-c1ccccc1)N1CCN(c2cccc(CO)c2)CC1 [Example 57, [4-(3-Hydroxymethylphenyl)piperazin-1-yl](2-hydroxy-4-phenyl-1H-imidazol-5-yl)methanone]
3050 nM | 52 nM | 80 °C | N#Cc1cccc(N2CCN(C(=O)c3cc[nH]c3-c3ccccc3)CC2)c1 [Example 74, 3-[4-(2-Phenyl-1H-pyrrol-3-ylcarbonyl)piperazin-1-yl]benzonitrile]
1010 nM | 11.5 nM | 198 °C | N#Cc1cccc(N2CCN(C(=O)c3[nH]c(O)nc3-c3ccccc3)CC2)c1 [Example 75, 3-[4-(2-Hydroxy-4-phenyl-1H-imidazol-5-ylcarbonyl)piperazin-1-yl]-benzonitrile]
2400 nM | 307 nM | 158 °C | N#Cc1cccc(N2CCN(C(=O)c3ccn(CCO)c3-c3ccccc3)CC2)c1 [Example 81, 3-[4-(1-Hydroxyethyl-2-phenyl-1H-pyrrol-3-ylcarbonyl)piperazin-1-yl]-benzonitrile]
685 nM | – | 236 °C | NC(=O)c1cccc(N2CCN(C(=O)c3sc(N)nc3-c3ccccc3)CC2)c1 [Example 85, 3-[4-(2-Amino-4-phenyl-thiazol-5-ylcarbonyl)piperazin-1-yl]benzamide]
715 nM | – | 176 °C | Nc1nc(-c2ccccc2)c(C(=O)N2CCN(c3cccc(CO)c3)CC2)s1 [Example 88, [4-(3-Hydroxymethylphenyl)piperazin-1-yl](2-amino-4-phenylthiazol-5-yl)-methanone]
